Values quoted from earlier work as cited in patent US7902399B2, “Fatty acids analogous” (Thia Medica AS, priority 2000, dated 2011).

Details: rat

CCCCCCCCCCCCCCSCC(=O)O [TTA]
metabolite formation in vivo (Δ9-desaturase): a desaturated product of TTA is formed in vivo
